Results reported in PMC7274485, “A symbiotic bacterium of shipworms produces a compound with broad spectrum anti-apicomplexan activity” (PLoS Pathogens, 2020).

Tested on: B. bovis
Test: Immunofluorescence assay of B. bovis CE11/p2xHA-glmS-gfp-bsd infected erythrocytes
Format: cell-based, Babesia bovis
Conditions: 50 nM trtE, 24 hours
Method: To evaluate the morphological changes in one of the intraerythrocytic parasites, B. bovis CE11/p2xHA-glmS-gfp-bsd parasites were exposed to 50 nM trtE or DMSO for 24 hours then fixed and processed for IFA. This B. bovis line expresses a soluble green fluorescent protein-blasticidin deaminase fusion protein (gfp-bsd),that was labeled with anti-GFP antibodies to visualize the parasite cytoplasm (Fig 3E, green fluorescence). […] Mis-localization of both the soluble gfp-bsd fusion protein (green label) and the RAP-1 protein (red label) was also observed. […]
For all IFAs, the investigator reading the slides and collecting images was blind to the sample treatment. […] 24 hours post treatment, infected cells were fixed with methanol, and parasites detected with rabbit anti-SAG1 antibody for T. gondii or rabbit anti-gp15 for C. parvum as we have described previously. […] This CE11 line is transiently transfected with a plasmid that expresses nanoluciferase from a B. divergens promoter and green fluorescence protein-blasticidin (gfp-bsd) from the selection cassette. […] Cells were incubated with rabbit anti-GFP (GenScript; Piscataway, NJ; cat. #A01388) and mouse monoclonal MBOC79B1 (a gift from G. Palmer) anti-BbRAP-1 protein antibodies, and reactions detected with goat anti-rabbit IgG-Alexafluor 488 and goat anti-mouse IgG-Alexafluor 594 antibodies (Invitrogen; Carlsbad, CA). […]

CC1CCC=CC=CCCC(O)CC(=O)CC2CCC(C)C3(O2)O[B-]24OC(C(=O)O1)C1(OC(CCC1C)CC(=O)CC(O)CCC=CC=CCCC(C)OC(=O)C3O2)O4 (stereo not shown) [trtE, tartrolon E]
Morphology of trtE treated B. bovis (IFA): distinctly rounded morphology
